Where two headings read alike, the source gives them in different places. Where a SMILES comes first, the peptide text is derived from it. [ ]: non-standard residue; d: D form. The star is where a group is joined. Bz = O=C(c1ccccc1)*
How the values were obtained:
[1] = Oral bioavailability, pharmacokinetic screening (i.v./p.o. cross-over, LC/MS/MS); format: in vivo; conditions: male, rat, plasma, Sprague-Dawley rats
Source text: The water used for these experiments was of highest quality obtained from a reversed osmosis primary system in combination with a Milli-Q water secondary treatment system (Millipore, Bedford, Mass., USA). Methanol was super gradient quality obtained from Labscan Ltd. (Dublin, Ireland). Formic acid p.a. (98-100%) was obtained from Merck (Darmstadt, Germany). Heptafluorobuturicacid, HPLC grade wAs obtained from Pierce (Rockford, Ill., USA). EDTA stabilised plasma from rat (Sprague-Dawley) was obtained from Harlan Sera Lab Ltd. (Loughborough, UK). Blood samples were collected in potassium EDTA coated microtainers from BD Vacutainer Systems (Plymouth, UK). Sample preparation by ultra filtration was performed using Microcon centrifugal filter devices with a molecular weight cut off of 3000 obtained from Millipore (Bedford, Mass., USA).
The LC/MS/MS analysis was performed on a Waters Alliance 2790 HPLC instrument in combination with a Quattro Ultima mass spectrometer from Micromass (Manchester, UK). Both the LC and MS were controlled by MassLynx 3.5 software. The LC separations prior to MS/MS detection were performed on an XTerra MS C18 (2.0×50 mm), 3.5 μm particles, (Waters, Milford, Mass., USA).
Twelve male Sprague-Dawley rats (approx 350 g) were obtained from M&B (Denmark) and catheters were inserted into the femoral vein and artery during Hypnorm®-Dormicum® anaesthesia. After surgery, the rats were allowed to recover for five days before drug administration was initiated.
The dipeptides (Compound 22, Compound 21, Compound 23, Compound 96, Compound 95 and Compound 54) were obtained as the TFA salts and dissolved in PBS (2.6 mM KCl, 137 mM NaCl, 1.5 mM KH2PO4 and 8.2 mM Na2HPO4 adjusted to pH=7.4) to give concentrations of 500 μM. The dosing volumes were 1 mL/kg corresponding to doses of 500 nmol/kg, respectively. After each experiment the dosing solutions were diluted in 0.5% formic acid in water and analysed by LC/MS/MS for their content of drug substance. The concentrations of drug substance in the dosing solutions were calculated from the responses of standards in the range from 1 to 1000 nM.
The drug substances were administered to two animals as i.v. and p.o. bolus in a cross-over study design. The p.o. dose was administered to rats fasted for a 17 hours period prior to drug administration. The animals were allowed to rest for 48 hours in between drug administrations. After the first experiment the rats received a blood transfusion with heparin treated blood.
Prior to drug administration (5 min) the rats received 500 IU heparin as an i.v. bolus and a control blood sample was collected. After drug administration blood samples of approx. 250 μL were collected from the femoral artery at the following time points; before dose (B.D.), 5, 15, 30, 60, 120, 180 and 240 min after i.v. administration and at B.D., 10, 30, 50, 80, 120, 180, 240, and 300 min after p.o. administration. The blood samples were stored on ice until centrifugation for 5 min at 10.000×g (4° C.) and the plasma (100 μL) were transferred to 1.5 mL polypropylene tubes and stored at −20° C. until sample preparation and LC/MS/MS analysis.
The plasma samples were thawed on ice, and 100 μL plasma was mixed with 100 μL 1% (v/v) formic acid and transferred to microcon YM-3 filter units. The samples were then centrifuged for 1 hr at 8.300×g at room temperature. The filtrates were collected in 300 μL autosampler vials and stored at 4° C. until injection (40 μL) onto the LC column. The chromatography was performed at 50° C. using a linear gradient from 100% buffer A (0.1% formic acid in water) to 100% buffer B (0.1% formic acid in acetonitrile) in 4 min, followed by 3 min wash using buffer B and finally a reequilibration period for 7 min using buffer A. The detection of the drug substances were performed by MS/MS using argon as collision gas (1.3×10^−3 mbar). […]

[2] = tested on: calcium-induced arrhythmias (2nd degree AV block); experiment: Standard calcium-induced arrhythmia assay; format: in vivo, Male NMRI mice; conditions: mice, i.v. 3 min before CaCl2 infusion; (tarr(testcompound)−tarr(vehicle))×100/tarr(vehicle)
Method: Peptides suitable for administration to cardiac cells can be identified in an in vivo model of calcium-induced arrhythmias according to the model of Lynch et al. (1981) J Cardiovasc. Pharmacol. 3: 49-60. Mice (25-30 g) are anaesthetized with a neurolept anaesthetic combination and an i.v. cannula is inserted into the tail vein. A lead II ECG signal is recorded continuously by positioning a stainless steel ECG electrodes on the right forelimb and on the left hind limb. The ground electrode is placed on the right hind limb. The signal is amplified (×5.000-10.000) and filtered (0.1-150 Hz) via a Hugo Sachs Electronic model 689 ECG module. The analog signal is digitized via a 12 bit data acquisition board (Data Translation model DT321) and sampled at 1000 Hz using the Notocord HEM 3.1 software for Windows NT. After a 10-minute equilibration period, the test sample of peptide is injected into the tail vein. Mice pre-treated with buffer are tested as a measure of the control level in untreated animals. The injection volume is 100 μl in all experiments.
Infusion of CaCl2 (30 mg/ml, 0.1 ml/min≈100 mg/kg/min (calcium chloride-2-hydrate, Riedel-de Haën, Germany)) is started 3 min after i.v. administration of drug or vehicle. The time lag to onset of 2nd degree AV-block is determined as the time from the start of CaCl2 infusion until the first arrhythmic event occurs. An event of 2nd degree AV-block is defined as intermittent failure of the AV conduction characterised by a P-wave without the concomitant QRS complex.
Responses are expressed relative to the time until 2nd degree AV-block occurred in vehicle treated mice. The maximal effect of compounds (e.g., peptides, AAP, AAP10 or controls) is determined. […] Preferably, […], the peptides provide at least about 40% of the activity of AAP, for example at least about 50% of the activity of AAP, such as about 60% of the activity of AAP, for example at least about 70% of the activity of AAP, such as at least about 80% of the activity of AAP, for example at least about 90% of the activity of AAP, for example at least about substantially the same activity of AAP, such as about 110% of the activity of AAP, for example at least about 120% of the activity of AAP, such as at least about 130% of the activity of AAP, for example at least about 140% of the activity of AAP, such as about 150% of the activity of AAP, for example at least about 160% of the activity of AAP, such as at least about 170% of the activity of AAP, for example at least about 180% of the activity of AAP, preferably at least about 190% of the activity of AAP, more preferably at least about 200 or greater % of the activity of AAP (i.e., the peptides show time lags of approximately the same duration as induced by AAP).
The anti-arrhythmic effect of the dipeptides was determined in a model of calcium-induced arrhythmias according to the model of Lynch et al.. Male NMRI mice (25-30 g; Bomholdtgaard, LI. Skendsved, Denmark) were anaesthetised with a neurolept anaesthetic combination (Hypnorm® (fentanyl citrate 0.315 mg/ml and fuanisone 10 mg/ml)+midazolam (5 mg/ml)). Commercial solutions of Hypnorm® and midazolam were diluted 1:1 in distilled water, and one part diluted Hypnorm® was mixed with one part diluted midazolam. Anaesthesia was induced by s.c. administration of this solution in a dose of 50-75 μl/10 gram mouse.
An i.v. cannula was inserted into the tail vein. The lead II ECG signal was recorded continuously by positioning of stainless steel ECG electrodes on the right forelimb and on the left hind limb. The ground electrode was placed on the right hind limb. The signal was amplified (×5.000-10.000) and filtered (0.1-150 Hz) via a Hugo Sachs Electronic model 689 ECG module. The analogue signal was digitised via a 12-bit data acquisition board (Data Translation model DT321) and sampled at 1000 Hz using the Notocord HEM 3.1 software for Windows NT. […]

[3] = tested on: Human primary osteoblasts; experiment: Osteoblast activity (ALP assay); format: cell-based; conditions: cell lysate, stimulated 1×10^−13 to 1×10^−6 for the last 4 days, compared to vehicle treated control cultures
Method: Cells also can be measured for the presence of alkaline phosphatase activity to provide a general measure of osteoblast activity. In one aspect, cells are plated in 96-well plates at a concentration of 8000 cells/well (hOB) or 3000 cells/well (ROS) in 200 μl normal culture medium. On day 4 (or day 3 for ROS cells), cells are washed with 200 μl MEM, 0.1% BSA (Sigma, Cat.No. A-9418). Samples comprising a suitable medium (e.g., 200 μl MEM, 0.1% BSA) containing various concentrations of peptides, control, AAP or AAP10 are added to the cells, and culture is continued for about 4 days (2 days for ROS cells).
On about day 8 (preferably day 5 for ROS cells), cells are assayed for alkaline phosphatase using an Alkaline Phosphatase (ALP) assay such as is known in the art. ALP assays are generally colorimetric endpoint methods for measuring enzyme activity, and can be performed using an Alkaline Phosphatase Kit (Sigma, Cat.No. 104-LL). Preferably, cells are washed once with 200 μl PBS+Ca, Mg, 100 μl Alkaline Buffer Solution is added to each well and the cells are incubated at 37° C. for 10 minutes. 100 μl Substrate Solution is subsequently added to each well and the plate is incubated at 37° C. for 30 min. 100 μl 2.0 N NaOH is added to each well to stop the reaction. Absorbance is measured using a plate reader at 405 nm.
Human primary osteoblasts were obtained from bone marrow biopsies of the posterior iliac spine from voluntary donors. Cells were used at 6 weeks of culturing. Cells were cultured in 24-well plates in an 8 days process and stimulated with the test compounds in concentrations from 1×10^−13 to 1×10^−6 for the last 4 days of the experiment. Cell lysate was collected for determination of ALP activity. hOB cells from 10-15 donors were used for the experiments. For ALP measurements a commercially available kit (Alkaline Phosphatase Kit, Sigma-Aldrich Denmark A/S) was used. All determinations were performed according to the manufacturer's recommendations.
ALP was determined on cell lysate collected at termination of the experiment. Measurements were compared with and to vehicle treated control cultures.
Data are presented as means and standard deviations or medians and percentiles as appropriate. Two-way ANOVA is performed using Fisher's LSD test for post-hoc comparisons, using a 0.05 level of significance.

[4] = oral, TFA salts in PBS, 500 nmol/kg i.v. and p.o. bolus, p.o. fasted 17 hours, dose normalised AUCpo/AUCiv, read-out: F (%) Mean (mean bioavailability)
[5] = oral administration 500 nmol/kg, read-out: bioavailability

Compound	bioavailability [1, 4]	bioavailability [1, 5]	% response (time lag to onset of 2nd degree AV block relative to vehicle) [2]	ALP activity relative to vehicle control (ratio) [3]
COc1ccc(C(=O)NCCCC[C@@H](N)C(=O)NCC(=O)O)cc1 [Compound 21, H-D-Lys(4-methoxybenzoyl)-Gly-OH]	2.6%	2 to 8%	55.0%	–
N[C@H](CCCCNC(=O)c1ccc([N+](=O)[O-])cc1)C(=O)NCC(=O)O [Compound 22, H-D-Lys(4-nitrobenzoyl)-Gly-OH]	31%	10 to 31%	52.0%	1.12
N[C@H](CCCCNC(=O)c1ccccc1)C(=O)NCC(=O)O [Compound 23, H-D-Lys(benzoyl)-Gly-OH] (H-[dK](Bz)-Gly-OH)	10%	10 to 31%	−8.0%	1.08
CC(C)(C)c1ccc(C(=O)NCCCC[C@@H](N)C(=O)NCC(=O)O)cc1 [Compound 54, H-D-Lys(4-t-butylbenzoyl)-Gly-OH]	7.2%	2 to 8%	61.3%	–
COc1ccc(CNC(=O)C[C@@H](N)C(=O)N[C@@H](C)C(=O)O)cc1 [Compound 95, H-D-Asn(NH(4-methoxybenzyl))-Ala-OH]	29%	10 to 31%	0.3%	1.14
C[C@H](NC(=O)[C@H](N)CC(=O)NCc1ccc([N+](=O)[O-])cc1)C(=O)O [Compound 96, H-D-Asn(NH(4-nitrobenzyl))-Ala-OH]	15%	10 to 31%	54%	–
H-Asn(NH(4-methoxybenzyl))-D-Ala-OH [Compound 80]	–	–	33%	–
H-Gly-Lys(4-cyanobenzoyl)-OH [Compound 3]	–	–	37.0%	–
H-Gly-Lys(4-methoxybenzoyl)-OH [Compound 4]	–	–	69.0%	–
H-Gly-Lys(4-nitrobenzoyl)-OH [Compound 1]	–	–	52.0%	1.08
H-Lys(4-nitrobenzoyl)-Gly-OH [Compound 7]	–	–	40%	–
